Results from PMC10321576, “Cyclic peptides target the aromatic cage of a PHD-finger reader domain to modulate epigenetic protein function” (Chemical Science, 2023).
Peptide text beside a SMILES is read from it.

Target: T1, KDM7B PHD-finger (Homo sapiens, UniProt Q9UPP1)
T1 construct: KDM7B 1-66; His-tag (C); made in house
T1 sequence (Q9UPP1 1-66 isoform Q9UPP1-2): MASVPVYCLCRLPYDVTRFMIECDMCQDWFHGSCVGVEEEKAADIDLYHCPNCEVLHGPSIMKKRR
Assay: Protein NMR 1H-15N HSQC chemical shift perturbation
Assay type: binding
Source text: To better elucidate OC9 interactions at a single residue level, we conducted protein NMR studies using isotopically labelled PHD-finger.[48] Comparison of ^1H–^15N HSQC spectra for isotopically labelled apo and OC9-bound protein (Fig. 4a), independently assigned using ^13C,^15N 3D experiments (Fig. S21, NMR ESI ^†), identified 24 out of 66 protein residues with significant (standard deviation, s > 1) chemical shift perturbation (CSP, Δδ) of their backbone amides (Fig. 4b).
(a) ^1H–^15N HSQC of KDM7B PHD-finger in the apo (black) or bound forms with OC9 (purple, 1 : 1) or H3_1–21K4me3 (green, 3 : 1). (b) ^1H and ^15N chemical shift changes for apo vs. + OC9 were combined and weighted to give chemical shift perturbation (CSP) (Δδ) values. Standard deviation (σ) of Δδ are indicated (>1 pink, >2 purple). (c) TALOS+ predicts similar secondary structure elements in apo and OC9-bound solution protein complexes (light grey) to those found in PDB ID 3KV4 (dark grey). […] (e) Shielded ^1H-NMR signals centred around −0.5 ppm belonging to the OC9 V10 γ-methyl groups are observed in some OC9–PHD complexes, but not in apo protein, or complexes with OC9 V10A and OC9 V10DV. The V10^OC9 γ-methyl signals have NOE interactions (black semi-circles) with the W29^PHD indole, which itself is shielded upon binding of OC9 (indicated by ΔδH values).

CC(C)[C@@H]1NC(=O)[C@H](CO)NC(=O)[C@@H]2CCCN2C(=O)[C@H](Cc2ccc(O)cc2)NC(=O)[C@@H]2CCCN2C(=O)[C@H](Cc2c[nH]cn2)NC(=O)[C@H]([C@@H](C)O)NC(=O)[C@H](C)NC(=O)[C@H](Cc2ccc(O)cc2)NC(=O)[C@H](Cc2ccc(O)cc2)NC(=O)CSC[C@@H](C(N)=O)NC(=O)[C@H]([C@@H](C)O)NC(=O)[C@H](CCCNC(=N)N)NC(=O)[C@H](Cc2ccccc2)NC1=O [L3A] (HELM PEPTIDE1{[O=C(C[*:3])[*:2]].Y.Y.A.T.H.P.Y.P.S.V.F.R.T.C.[am]}$PEPTIDE1,PEPTIDE1,1:R3-15:R3$$$V2.0; C-terminus assumed)
CSP Ala2 (residue Ala2 amide 1H-15N, Free PHD vs PHD+peptide): 0.0068 | CSP Ala2, OC9 vs OC9 L3A (residue Ala2 amide, PHD+OC9 vs PHD+OC9 L3A): 0.0102 | CSP Ala42 (residue Ala42 amide 1H-15N, Free PHD vs PHD+peptide): 0.4335 | CSP Ala42, OC9 vs OC9 L3A (residue Ala42 amide, PHD+OC9 vs PHD+OC9 L3A): 0.0214 | CSP Ala43 (residue Ala43 amide 1H-15N, Free PHD vs PHD+peptide): 0.4214 | CSP Ala43, OC9 vs OC9 L3A (residue Ala43 amide, PHD+OC9 vs PHD+OC9 L3A): 0.0343 | CSP Arg11 (residue Arg11 amide 1H-15N, Free PHD vs PHD+peptide): 0.0169 | CSP Arg11, OC9 vs OC9 L3A (residue Arg11 amide, PHD+OC9 vs PHD+OC9 L3A): 0.0087 | CSP Arg18 (residue Arg18 amide 1H-15N, Free PHD vs PHD+peptide): 0.1337 | CSP Arg18, OC9 vs OC9 L3A (residue Arg18 amide, PHD+OC9 vs PHD+OC9 L3A): 0.0146 | CSP Arg65 (residue Arg65 amide 1H-15N, Free PHD vs PHD+peptide): 0.0010 | CSP Arg65, OC9 vs OC9 L3A (residue Arg65 amide, PHD+OC9 vs PHD+OC9 L3A): 0.0115 | CSP Arg66 (residue Arg66 amide 1H-15N, Free PHD vs PHD+peptide): 0.0045 | CSP Arg66, OC9 vs OC9 L3A (residue Arg66 amide, PHD+OC9 vs PHD+OC9 L3A): 0.0034 | CSP Asn52 (residue Asn52 amide 1H-15N, Free PHD vs PHD+peptide): 0.0619 | CSP Asn52, OC9 vs OC9 L3A (residue Asn52 amide, PHD+OC9 vs PHD+OC9 L3A): 0.0178 | CSP Asp15 (residue Asp15 amide 1H-15N, Free PHD vs PHD+peptide): 0.2511 | CSP Asp15, OC9 vs OC9 L3A (residue Asp15 amide, PHD+OC9 vs PHD+OC9 L3A): 0.0129 | CSP Asp24 (residue Asp24 amide 1H-15N, Free PHD vs PHD+peptide): 0.0765 | CSP Asp24, OC9 vs OC9 L3A (residue Asp24 amide, PHD+OC9 vs PHD+OC9 L3A): 0.0087 | CSP Asp28 (residue Asp28 amide 1H-15N, Free PHD vs PHD+peptide): 0.1850 | CSP Asp28, OC9 vs OC9 L3A (residue Asp28 amide, PHD+OC9 vs PHD+OC9 L3A): 0.0277 | CSP Asp44 (residue Asp44 amide 1H-15N, Free PHD vs PHD+peptide): 0.1299 | CSP Asp44, OC9 vs OC9 L3A (residue Asp44 amide, PHD+OC9 vs PHD+OC9 L3A): 0.0065 | CSP Asp46 (residue Asp46 amide 1H-15N, Free PHD vs PHD+peptide): 0.1937 | CSP Asp46, OC9 vs OC9 L3A (residue Asp46 amide, PHD+OC9 vs PHD+OC9 L3A): 0.0214 | CSP Cys8 (residue Cys8 amide 1H-15N, Free PHD vs PHD+peptide): 0.2230 | CSP Cys8, OC9 vs OC9 L3A (residue Cys8 amide, PHD+OC9 vs PHD+OC9 L3A): 0.0115 | CSP Cys10 (residue Cys10 amide 1H-15N, Free PHD vs PHD+peptide): 0.0457 | CSP Cys10, OC9 vs OC9 L3A (residue Cys10 amide, PHD+OC9 vs PHD+OC9 L3A): 0.0102 | CSP Cys23 (residue Cys23 amide 1H-15N, Free PHD vs PHD+peptide): 0.1510 | CSP Cys23, OC9 vs OC9 L3A (residue Cys23 amide, PHD+OC9 vs PHD+OC9 L3A): 0.0210 | CSP Cys26 (residue Cys26 amide 1H-15N, Free PHD vs PHD+peptide): 0.1657 | CSP Cys26, OC9 vs OC9 L3A (residue Cys26 amide, PHD+OC9 vs PHD+OC9 L3A): 0.0115 | CSP Cys34 (residue Cys34 amide 1H-15N, Free PHD vs PHD+peptide): 0.0274 | CSP Cys34, OC9 vs OC9 L3A (residue Cys34 amide, PHD+OC9 vs PHD+OC9 L3A): 0.0065 | CSP Cys50 (residue Cys50 amide 1H-15N, Free PHD vs PHD+peptide): 0.0600 | CSP Cys50, OC9 vs OC9 L3A (residue Cys50 amide, PHD+OC9 vs PHD+OC9 L3A): 0.0129 | CSP Cys53 (residue Cys53 amide 1H-15N, Free PHD vs PHD+peptide): 0.0573 | CSP Cys53, OC9 vs OC9 L3A (residue Cys53 amide, PHD+OC9 vs PHD+OC9 L3A): 0.0065 | CSP Gln27 (residue Gln27 amide 1H-15N, Free PHD vs PHD+peptide): 0.1418 | CSP Gln27, OC9 vs OC9 L3A (residue Gln27 amide, PHD+OC9 vs PHD+OC9 L3A): 0.0110 | CSP Glu22 (residue Glu22 amide 1H-15N, Free PHD vs PHD+peptide): 0.1432 | CSP Glu22, OC9 vs OC9 L3A (residue Glu22 amide, PHD+OC9 vs PHD+OC9 L3A): 0.0223 | CSP Glu38 (residue Glu38 amide 1H-15N, Free PHD vs PHD+peptide): 0.1564 | CSP Glu38, OC9 vs OC9 L3A (residue Glu38 amide, PHD+OC9 vs PHD+OC9 L3A): 0.0388 | CSP Glu39 (residue Glu39 amide 1H-15N, Free PHD vs PHD+peptide): 0.2246 | CSP Glu39, OC9 vs OC9 L3A (residue Glu39 amide, PHD+OC9 vs PHD+OC9 L3A): 0.0231 | CSP Glu40 (residue Glu40 amide 1H-15N, Free PHD vs PHD+peptide): 0.1065 | CSP Glu40, OC9 vs OC9 L3A (residue Glu40 amide, PHD+OC9 vs PHD+OC9 L3A): 0.0110 | CSP Glu54 (residue Glu54 amide 1H-15N, Free PHD vs PHD+peptide): 0.0548 | CSP Glu54, OC9 vs OC9 L3A (residue Glu54 amide, PHD+OC9 vs PHD+OC9 L3A): 0.0034 | CSP Gly32 (residue Gly32 amide 1H-15N, Free PHD vs PHD+peptide): 0.1585 | CSP Gly32, OC9 vs OC9 L3A (residue Gly32 amide, PHD+OC9 vs PHD+OC9 L3A): 0.0220 | CSP Gly36 (residue Gly36 amide 1H-15N, Free PHD vs PHD+peptide): 0.1019 | CSP Gly36, OC9 vs OC9 L3A (residue Gly36 amide, PHD+OC9 vs PHD+OC9 L3A): 0.0055 | CSP Gly58 (residue Gly58 amide 1H-15N, Free PHD vs PHD+peptide): 0.0491 | CSP Gly58, OC9 vs OC9 L3A (residue Gly58 amide, PHD+OC9 vs PHD+OC9 L3A): 0.0055 | CSP His31 (residue His31 amide 1H-15N, Free PHD vs PHD+peptide): 0.2104 | CSP His31, OC9 vs OC9 L3A (residue His31 amide, PHD+OC9 vs PHD+OC9 L3A): 0.0065 | CSP His49 (residue His49 amide 1H-15N, Free PHD vs PHD+peptide): 0.0983
